Test results taken from US20230303613A1, “3′3′ CYCLIC DINUCLEOTIDES WITH AN ALKENYLENE” (Institute of Organic Chemistry and Biochemistry AS CR, v.v.i, priority 2020, published 2023).
Like-named read-outs stand apart in the source and are kept apart here.

Legend:
WT STING = WT STING (Homo sapiens, UniProt Q86WV6, H232R); experiment: 293T WT STING standard reporter assay; format: cell-based; conditions: 293T wtSTING-FL cells; 7 hours with compound, no digitonin; ISRE firefly luciferase reporter
Source text: Two complementary oligonucleotides of the sequence […] […] […] […] […] The oligonucleotides were mixed in equal molar amounts, hybridized, and cleaved by restriction endonucleases HindIII (cat. #. R0104S, NEB, Ipswich, USA) and BglII (cat. # R0144S, NEB, Ipswich, USA). Ultimately, they were ligated into plasmid pGL4.27 (cat. # E6651, Promega, Madison, USA) linearized with the same enzymes. As result the sequence with four ISRE sites was placed upstream of the minimum promoter of firefly luciferase reporter gene.
After 5 minutes incubation at room temperature (RT), 250 µL of the mixture was added dropwise to the cells in one well. Cells were incubated 36 hours at 37° C. with 5% CO2, and then detached with 0.05% Trypsin and 0.22 g/L EDTA (both cat. # L0941, Biowest, Riverside, USA).
Transfected cells were seeded onto poly-D-lysine coated six well plates at density 50,000 cells per 1 cm^2 in DMEM medium with high glucose containing 10% heat inactivated FBS, 30 µg/mL blasticidin (cat. # ant-bl-05, InvivoGen, San Diego, USA), 0.06 mg/ml Penicillin G and 0.1 mg/ml Streptomycin Sulfate (both cat. #. L0018, Biowest, Riverside, USA). The medium was replenished every 3 - 4 days until visible colonies of cells resistant to blasticidin were formed.
Blasticidin resistant cells stably expressing WT STING were further transfected with […] plasmid following the same procedure as described above. […] Homogeneous culture of stably double transfected cells was prepared by limiting dilution of cells in 96 well plates and wells with cells were selected that originated from a single cell.
The medium was removed next day and three-fold serial dilutions of compounds in 100 µl medium were added to the cells. The plates with cells were incubated for 7 hours at 37° C. with 5% CO2. After 50 µl of the medium was removed, 30 µl of ONE-Glo^Tm Luciferase Assay System reagent (cat. # E6120, Promega, Madison, USA) was added to each well and luminescence was read on Synergy H1 (Biotek, Winooski, USA).

[1] = tested on: peripheral blood mononuclear cell (PBMC); experiment: Peripheral blood mononuclear cell assay; format: cell-based; conditions: 1h with compound, washed, 15 hour incubation
Protocol: Selected compounds were tested in an in vitro peripheral blood mononuclear cell (PBMC) assay. Freshly isolated PBMCs were seeded into U-shaped shaped 96-well plates at desity 500,000 cells per well in 50 µl of RPMI 1640 medium supplemented with 10% heat inactivated FBS. Serially dilluted tested compounds were added to wells in 50 µl of cultivation medium and cell were incubated with compounds for 1h at 37° C. with 5% CO2. Plates with cells were then spun 500 g for 5 minutes and medium was removed. Cells were washed twice with the cell culture medium by the use of centrifugation and gently resuspended in 100 µl medium without compounds. After 15 hour incubation at 37° C. with 5% CO2, the cell culture medium was collected and the levels of interferon-alpha (INF-α), interferon-gamma (INF-γ) and tumor necrosis factor-alpha (TNF-α) were determined with ProcartaPlex Assays (ThermoFisher, Waltham, USA) and MAGPIX System (Merck KGaA, Darmstadt, Germany).

[2] = PBMC, IFN-α level in medium, read-out: PBMC EC50 IFN-α
[3] = PBMC, IFN-γ level in medium, read-out: PBMC EC50 IFN-γ
[4] = PBMC, TNF-α level in medium, read-out: PBMC EC50 TNF-α
[5] = IFN-α level in medium, read-out: PBMC EC50 IFN-α
[6] = TNF-α level in medium, read-out: PBMC EC50 TNF-α

Chain of WT STING (Q86WV6 whole entry H232R): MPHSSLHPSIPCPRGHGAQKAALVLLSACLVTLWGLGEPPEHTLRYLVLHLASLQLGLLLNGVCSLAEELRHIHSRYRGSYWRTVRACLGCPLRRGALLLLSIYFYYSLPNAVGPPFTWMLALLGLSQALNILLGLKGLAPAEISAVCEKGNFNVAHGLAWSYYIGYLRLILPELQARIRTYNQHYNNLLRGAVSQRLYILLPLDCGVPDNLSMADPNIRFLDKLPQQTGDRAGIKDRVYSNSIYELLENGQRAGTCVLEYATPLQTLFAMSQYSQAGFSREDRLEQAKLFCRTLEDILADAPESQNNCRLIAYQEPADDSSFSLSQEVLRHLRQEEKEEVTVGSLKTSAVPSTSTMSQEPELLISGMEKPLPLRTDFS

CC(C)(C)C(=O)OCOP1(=O)/C=C/[C@H]2O[C@@H](n3cnc4c(N)ncnc43)[C@H](F)[C@@H]2OP(=O)(OCOC(=O)C(C)(C)C)OC[C@H]2O[C@@H](n3cnc4c(N)ncnc43)[C@H](F)[C@@H]2O1 (single isomer, unassigned) [Compound 80a]
EC50 (WT STING): 84 nM

CC(C)(C)C(=O)OCOP1(=O)/C=C/[C@H]2O[C@@H](n3cnc4c(N)ncnc43)[C@H](F)[C@@H]2OP(=O)(OCOC(=O)C(C)(C)C)OC[C@H]2O[C@@H](n3cnc4c(N)ncnc43)[C@H](F)[C@@H]2O1 (single isomer, unassigned) [Compound 80b]
EC50 (WT STING): 22 nM

CC(C)(C)C(=O)OCOP1(=O)/C=C/[C@H]2O[C@@H](n3cnc4c(N)ncnc43)[C@H](F)[C@@H]2OP(=O)(OCOC(=O)C(C)(C)C)OC[C@H]2O[C@@H](n3cnc4c(N)ncnc43)[C@H](F)[C@@H]2O1 (single isomer, unassigned) [Compound 80c]
EC50 (WT STING): 12 nM | EC50 [1, 2]: 100 nM | EC50 [1, 3]: 180 nM | EC50 [1, 4]: 100 nM

CC1(C(=O)OCOP2(=O)/C=C/[C@H]3O[C@@H](n4cnc5c(N)ncnc54)[C@H](F)[C@@H]3OP(=O)(OCOC(=O)C3(C)CCCCC3)OC[C@H]3O[C@@H](n4cnc5c(N)ncnc54)[C@H](F)[C@@H]3O2)CCCCC1 (single isomer, unassigned) [Compound 82a]
EC50 (WT STING): 200 nM

CC1(C(=O)OCOP2(=O)/C=C/[C@H]3O[C@@H](n4cnc5c(N)ncnc54)[C@H](F)[C@@H]3OP(=O)(OCOC(=O)C3(C)CCCCC3)OC[C@H]3O[C@@H](n4cnc5c(N)ncnc54)[C@H](F)[C@@H]3O2)CCCCC1 (single isomer, unassigned) [Compound 82b]
EC50 (WT STING): 80 nM

CC1(C(=O)OCOP2(=O)/C=C/[C@H]3O[C@@H](n4cnc5c(N)ncnc54)[C@H](F)[C@@H]3OP(=O)(OCOC(=O)C3(C)CCCCC3)OC[C@H]3O[C@@H](n4cnc5c(N)ncnc54)[C@H](F)[C@@H]3O2)CCCCC1 (single isomer, unassigned) [Compound 82c]
EC50 (WT STING): 15 nM | EC50 [1, 2]: 100 nM | EC50 [1, 3]: 70 nM | EC50 [1, 4]: 60 nM

CCCCCCCC(=O)OCOP1(=O)/C=C/[C@H]2O[C@@H](n3cnc4c(N)ncnc43)[C@H](F)[C@@H]2OP(=O)(OCOC(=O)CCCCCCC)OC[C@H]2O[C@@H](n3cnc4c(N)ncnc43)[C@H](F)[C@@H]2O1 (single isomer, unassigned) [Compound 83a]
EC50 (WT STING): 23 nM

CCCCCCCC(=O)OCOP1(=O)/C=C/[C@H]2O[C@@H](n3cnc4c(N)ncnc43)[C@H](F)[C@@H]2OP(=O)(OCOC(=O)CCCCCCC)OC[C@H]2O[C@@H](n3cnc4c(N)ncnc43)[C@H](F)[C@@H]2O1 (single isomer, unassigned) [Compound 83b]
EC50 (WT STING): 3 nM

CCCCCCCC(=O)OCOP1(=O)/C=C/[C@H]2O[C@@H](n3cnc4c(N)ncnc43)[C@H](F)[C@@H]2OP(=O)(OCOC(=O)CCCCCCC)OC[C@H]2O[C@@H](n3cnc4c(N)ncnc43)[C@H](F)[C@@H]2O1 (single isomer, unassigned) [Compound 83c]
EC50 (WT STING): 3 nM

CCC(C)(C)C(=O)OCOP1(=O)/C=C/[C@H]2O[C@@H](n3cnc4c(N)ncnc43)[C@H](F)[C@@H]2OP(=O)(OCOC(=O)C(C)(C)CC)OC[C@H]2O[C@@H](n3cnc4c(N)ncnc43)[C@H](F)[C@@H]2O1 (single isomer, unassigned) [Compound 84a]
EC50 (WT STING): 150 nM

CCC(C)(C)C(=O)OCOP1(=O)/C=C/[C@H]2O[C@@H](n3cnc4c(N)ncnc43)[C@H](F)[C@@H]2OP(=O)(OCOC(=O)C(C)(C)CC)OC[C@H]2O[C@@H](n3cnc4c(N)ncnc43)[C@H](F)[C@@H]2O1 (single isomer, unassigned) [Compound 84b]
EC50 (WT STING): 10 nM | EC50 [1, 5]: 80 nM | EC50 [1, 6]: 70 nM | EC50 [1, 3]: 60 nM

CCC(C)(C)C(=O)OCOP1(=O)/C=C/[C@H]2O[C@@H](n3cnc4c(N)ncnc43)[C@H](F)[C@@H]2OP(=O)(OCOC(=O)C(C)(C)CC)OC[C@H]2O[C@@H](n3cnc4c(N)ncnc43)[C@H](F)[C@@H]2O1 (single isomer, unassigned) [Compound 84c]
EC50 (WT STING): 7 nM | EC50 [1, 5]: 30 nM | EC50 [1, 6]: 10 nM

CCCCCCCCCCCC(=O)OCOP1(=O)/C=C/[C@H]2O[C@@H](n3cnc4c(N)ncnc43)[C@H](F)[C@@H]2OP(=O)(OCOC(=O)CCCCCCCCCCC)OC[C@H]2O[C@@H](n3cnc4c(N)ncnc43)[C@H](F)[C@@H]2O1 (single isomer, unassigned) [Compound 85a]
EC50 (WT STING): 0.4 nM | EC50 [1, 2]: 20 nM | EC50 [1, 3]: 10 nM | EC50 [1, 4]: 20 nM

CCCCCCCCCCCC(=O)OCOP1(=O)/C=C/[C@H]2O[C@@H](n3cnc4c(N)ncnc43)[C@H](F)[C@@H]2OP(=O)(OCOC(=O)CCCCCCCCCCC)OC[C@H]2O[C@@H](n3cnc4c(N)ncnc43)[C@H](F)[C@@H]2O1 (single isomer, unassigned) [Compound 85b]
EC50 (WT STING): 3 nM

CC(C)(C)C(=O)OCOP1(=O)/C=C/[C@H]2O[C@@H](n3cnc4c(N)ncnc43)C[C@@H]2OP(=O)(OCOC(=O)C(C)(C)C)OC[C@H]2O[C@@H](n3cnc4c(N)ncnc43)[C@H](F)[C@@H]2O1 (single isomer, unassigned) [Compound 87a]
EC50 (WT STING): 12100 nM

CC(C)(C)C(=O)OCOP1(=O)/C=C/[C@H]2O[C@@H](n3cnc4c(N)ncnc43)C[C@@H]2OP(=O)(OCOC(=O)C(C)(C)C)OC[C@H]2O[C@@H](n3cnc4c(N)ncnc43)[C@H](F)[C@@H]2O1 (single isomer, unassigned) [Compound 87b]
EC50 (WT STING): 670 nM

CC(C)(C)C(=O)OCOP1(=O)/C=C/[C@H]2O[C@@H](n3cnc4c(N)ncnc43)C[C@@H]2OP(=O)(OCOC(=O)C(C)(C)C)OC[C@H]2O[C@@H](n3cnc4c(N)ncnc43)[C@H](F)[C@@H]2O1 (single isomer, unassigned) [Compound 87c]
EC50 (WT STING): 260 nM

CC(C)OC(=O)OCOP1(=O)/C=C/[C@H]2O[C@@H](n3cnc4c(N)ncnc43)[C@H](F)[C@@H]2OP(=O)(OCOC(=O)OC(C)C)OC[C@H]2O[C@@H](n3cnc4c(N)ncnc43)[C@H](F)[C@@H]2O1 (stereo partly drawn) [Compound 81a, {[(1R,6R,8R,9R,10R,13E,15R,17R,18R)-8,17-bis(6-amino-9H-purin-9-yl)-9,18-difluoro-3,12-dioxo-3-({[(propan-2-yloxy)carbonyl]oxy}methoxy)-2,4,7,11,16-pentaoxa-3λ^5,12λ^5-diphosphatricyclo[13.3.0.0^6,^10]octadec-13-en-12-yl]oxy}methyl propan-2-yl carbonate]
EC50 (WT STING): 9500 nM

CC(C)(C)C(=O)OCOP1(=O)/C=C/[C@H]2O[C@@H](n3cnc4c(N)ncnc43)[C@H](F)[C@@H]2OP(=O)(OCOC(=O)C(C)(C)C)OC[C@H]2O[C@@H](n3cnc4c(N)ncnc43)C[C@@H]2O1 (stereo partly drawn) [Compound 86, {[(1R,6R,8R,10S,13E,15R,17R,18R)-8,17-bis(6-amino-9H-purin-9-yl)-3-{[(2,2-dimethylpropanoyl)oxy]methoxy}-18-fluoro-3,12-dioxo-2,4,7,11,16-pentaoxa-3λ^5,12λ^5-diphosphatricyclo[13.3.0.0^6,^10]octadec-13-en-12-yl]oxy}methyl 2,2-dimethylpropanoate]
EC50 (WT STING): 10 nM | EC50 [1, 2]: 600 nM | EC50 [1, 3]: 1600 nM | EC50 [1, 4]: 800 nM

{[(1R,6R,8R,9R,10R,13E,15R,17R,18R)-8,17-bis(6-amino-9H-purin-9-yl)-9,18-difluoro-3,12-dioxo-3-({[(propan-2-yloxy)carbonyl]oxy}methoxy)-2,4,7,11,16-pentaoxa-3λ^5,12λ^5- diphosphatricyclo[13.3.0.0^6,^10]octadec-13-en-12-yl]oxy}methyl propan-2-yl carbonate [Compound 81b]
EC50 (WT STING): 1200 nM
